How the values were obtained:
Assay type in all cases: in vivo
corn (Zea mays) = assay: Test A pre-/postemergence plant response
In short: (§1)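 Greenhouse pots of loam/sand received directed preemergence soil sprays or postemergence sprays (plants 2–10 cm, 1–2 leaf stage), compounds formulated in non-phytotoxic solvent with surfactant. Injury was rated visually versus untreated controls after about ten days on a 0 (no effect) to 100 (complete control) scale.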

[1] = tested on: pigweed (Amaranthus retroflexus); assay: Test A pre-/postemergence plant response
In short: as §1

[2] = tested on: giant foxtail (Setaria faberii); assay: Test A pre-/postemergence plant response
In short: as §1

[3] = tested on: wheat (Triticum aestivum); assay: Test A pre-/postemergence plant response
In short: as §1

[4] = tested on: velvetleaf (Abutilon theophrasti); assay: Test A pre-/postemergence plant response
In short: as §1

[5] = tested on: morningglory (Ipomoea spp.); assay: Test A pre-/postemergence plant response
In short: as §1

[6] = tested on: large crabgrass (Digitaria sanguinalis); assay: Test A pre-/postemergence plant response
In short: as §1

[7] = tested on: barnyardgrass (Echinochloa crus-galli); assay: Test A pre-/postemergence plant response
In short: as §1

rice (Oryza sativa) = assay: Test B flooded paddy test; details: for Plant response rating, Flood, Rice: 250 g ai/ha, flooded paddy test, visual rating on 0 to 100 scale (0 no effect, 100 complete control) after 13 to 15 days; for Plant response rating, Rice: Flood (flooded paddy test), 13 to 15 days; for Rice plant response rating: Flood, scale 0 to 100 (0 no effect, 100 complete control)
In short: (§2)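 Each compound is added to standing floodwater (3 cm above soil, maintained) in pots of 2-leaf-stage plants; greenhouse exposure lasts 13–15 d before visual comparison with controls on a 0–100 control scale.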

[8] = tested on: ducksalad (Heteranthera limosa); assay: Test B flooded paddy test; details: for Plant response rating, Flood, Ducksalad: 250 g ai/ha, flooded paddy test, visual rating on 0 to 100 scale (0 no effect, 100 complete control) after 13 to 15 days; for Plant response rating, Ducksalad: Flood (flooded paddy test), 13 to 15 days; for Ducksalad plant response rating: Flood, scale 0 to 100 (0 no effect, 100 complete control)
In short: as §2

[9] = tested on: umbrella sedge (Cyperus difformis); assay: Test B flooded paddy test; details: for Plant response rating, Flood, Sedge, Umbrella: 250 g ai/ha, flooded paddy test, visual rating on 0 to 100 scale (0 no effect, 100 complete control) after 13 to 15 days; for Plant response rating, Sedge, Umbrella: Flood (flooded paddy test), 13 to 15 days; for Sedge, Umbrella plant response rating: Flood, scale 0 to 100 (0 no effect, 100 complete control)
In short: as §2

[10] = tested on: barnyardgrass (Echinochloa crus-galli); assay: Test B flooded paddy test; details: for Plant response rating, Flood, Barnyardgrass: 250 g ai/ha, flooded paddy test, visual rating on 0 to 100 scale (0 no effect, 100 complete control) after 13 to 15 days; for Plant response rating, Barnyardgrass: Flood (flooded paddy test), 13 to 15 days; for Barnyardgrass plant response rating: Flood, scale 0 to 100 (0 no effect, 100 complete control)
In short: as §2

[11] = Postemergence, 125 g ai/ha, 0 to 100 scale where 0 is no effect and 100 is complete control
[12] = Postemergence, 500 g ai/ha, 0 to 100 scale, 0 = no effect, 100 = complete control, approx. ten days
[13] = Preemergence, 125 g ai/ha, 0 to 100 scale, 0 = no effect, 100 = complete control
[14] = Preemergence, 500 g ai/ha, visual injury, 0 to 100 scale (0 no effect, 100 complete control), approx. ten days
[15] = 62 g ai/ha, scale of 0 to 100 where 0 is no effect and 100 is complete control
[16] = 125 g ai/ha, scale 0 to 100, 0 is no effect, 100 is complete control
[17] = Postemergence, 125 g ai/ha, visual injury, 0 to 100 scale (0 no effect, 100 complete control), approx. ten days
[18] = 31 g ai/ha, scale of 0 to 100 where 0 is no effect and 100 is complete control
[19] = 62 g ai/ha, scale 0 to 100, 0 is no effect, 100 is complete control
[20] = Postemergence, 500 g ai/ha, visual injury, 0 to 100 scale (0 no effect, 100 complete control), approx. ten days
[21] = Preemergence, 125 g ai/ha, 0 to 100 scale where 0 is no effect and 100 is complete control, approximately ten days
[22] = Preemergence, 500 g ai/ha, 0 to 100 scale, 0 = no effect, 100 = complete control

O=C1CCCC(O)=C1C(=O)c1cnc(-c2cccc(Cl)c2)n(CC2CCCO2)c1=O (stereo not drawn) [Compound 142]
0: Plant response rating, Corn (corn (Zea mays); [11]) | Plant response rating, Corn (corn (Zea mays); [13]) | Plant response rating, Corn (corn (Zea mays); [14]) | Plant response rating, Foxtail, Giant [2, 13] | Plant response rating, Wheat [3, 11] | Plant response rating, Wheat [3, 13] | Plant response rating, Wheat [3, 14] | Plant response rating, Morningglory [5, 13] | Plant response rating, Flood, Rice (rice (Oryza sativa)) | Plant response rating, Rice (rice (Oryza sativa); [15]) | Plant response rating, Rice (rice (Oryza sativa); [16]) | Rice plant response rating (rice (Oryza sativa); 31 g ai/ha) | Plant response rating, Ducksalad [8, 15] | Ducksalad plant response rating ([8]; 31 g ai/ha) | Plant response rating, Sedge, Umbrella [9, 15] | Sedge, Umbrella plant response rating ([9]; 31 g ai/ha) | Plant response rating, Barnyardgrass [10, 15] | Plant response rating, Barnyardgrass [10, 16] | Barnyardgrass plant response rating ([10]; 31 g ai/ha)
30: Plant response rating, Foxtail, Giant [2, 11] | Plant response rating, Crabgrass, Large [6, 13]
100: Plant response rating, Pigweed [1, 12] | Plant response rating, Pigweed [1, 14] | Plant response rating, Velvetleaf [4, 11] | Plant response rating, Velvetleaf [4, 12] | Plant response rating, Morningglory [5, 11] | Plant response rating, Morningglory [5, 12]
80: Plant response rating, Foxtail, Giant [2, 12] | Plant response rating, Crabgrass, Large [6, 14] | Plant response rating, Barnyardgrass [7, 14] | Plant response rating, Flood, Ducksalad [8] | Plant response rating, Ducksalad [8, 16] | Plant response rating, Flood, Sedge, Umbrella [9]
10: Plant response rating, Barnyardgrass [7, 13] | Plant response rating, Flood, Barnyardgrass [10]
70: Plant response rating, Crabgrass, Large [6, 11] | Plant response rating, Barnyardgrass [7, 11]
60: Plant response rating, Velvetleaf [4, 14]
65: Plant response rating, Sedge, Umbrella [9, 16]
20: Plant response rating, Corn (corn (Zea mays); [12]) | Plant response rating, Foxtail, Giant [2, 14] | Plant response rating, Wheat [3, 12] | Plant response rating, Velvetleaf [4, 13]
50: Plant response rating, Morningglory [5, 14]
90: Plant response rating, Pigweed [1, 11] | Plant response rating, Pigweed [1, 13] | Plant response rating, Crabgrass, Large [6, 12] | Plant response rating, Barnyardgrass [7, 12]

O=C1CCCC(O)=C1C(=O)c1cnc(-c2ccccc2)n(-c2cccc(F)c2)c1=O [Compound 22]
65: Plant response rating, Flood, Sedge, Umbrella [9]
90: Plant response rating, Pigweed [1, 14] | Plant response rating, Crabgrass, Large [6, 14]
20: Plant response rating, Foxtail, Giant [2, 13] | Plant response rating, Morningglory [5, 13] | Plant response rating, Ducksalad [8, 19]
100: Plant response rating, Pigweed [1, 12] | Velvetleaf plant response rating [4, 17] | Plant response rating, Velvetleaf [4, 12] | Plant response rating, Velvetleaf [4, 14] | Plant response rating, Morningglory [5, 12] | Plant response rating, Barnyardgrass [7, 14]
40: Plant response rating, Corn (corn (Zea mays); [12]) | Crabgrass, Large plant response rating [6, 17] | Plant response rating, Crabgrass, Large [6, 13] | Plant response rating, Sedge, Umbrella [9, 16]
80: Pigweed plant response rating [1, 17] | Plant response rating, Foxtail, Giant [2, 12] | Plant response rating, Foxtail, Giant [2, 14] | Plant response rating, Crabgrass, Large [6, 12]
10: Barnyardgrass plant response rating [7, 17] | Plant response rating, Barnyardgrass [7, 13]
60: Plant response rating, Flood, Ducksalad [8]
70: Plant response rating, Pigweed [1, 13] | Plant response rating, Morningglory [5, 14] | Plant response rating, Barnyardgrass [7, 12]
30: Foxtail, Giant plant response rating [2, 17] | Plant response rating, Velvetleaf [4, 13] | Morningglory plant response rating [5, 17] | Plant response rating, Ducksalad [8, 16] | Plant response rating, Sedge, Umbrella [9, 19]
0: Corn plant response rating (corn (Zea mays); [17]) | Plant response rating, Corn (corn (Zea mays); [13]) | Plant response rating, Corn (corn (Zea mays); [14]) | Wheat plant response rating [3, 17] | Plant response rating, Wheat [3, 12] | Plant response rating, Wheat [3, 13] | Plant response rating, Wheat [3, 14] | Plant response rating, Flood, Rice (rice (Oryza sativa)) | Plant response rating, Rice (rice (Oryza sativa); [18]) | Plant response rating, Rice (rice (Oryza sativa); [19]) | Plant response rating, Rice (rice (Oryza sativa); [16]) | Plant response rating, Ducksalad [8, 18] | Plant response rating, Sedge, Umbrella [9, 18] | Plant response rating, Flood, Barnyardgrass [10] | Plant response rating, Barnyardgrass [10, 18] | Plant response rating, Barnyardgrass [10, 19] | Plant response rating, Barnyardgrass [10, 16]

CSc1ncc(C(=O)C2=C(O)CCCC2=O)c(=O)n1-c1ccccc1 [Compound 30]
20: Plant response rating, Velvetleaf [4, 13] | Plant response rating, Ducksalad [8, 19] | Plant response rating, Sedge, Umbrella [9, 19]
40: Plant response rating, Foxtail, Giant [2, 12] | Plant response rating, Barnyardgrass [7, 14]
50: Plant response rating, Morningglory [5, 12] | Plant response rating, Flood, Ducksalad [8] | Plant response rating, Flood, Sedge, Umbrella [9]
10: Foxtail, Giant plant response rating [2, 17] | Plant response rating, Foxtail, Giant [2, 14] | Barnyardgrass plant response rating [7, 17]
80: Plant response rating, Pigweed [1, 12] | Plant response rating, Pigweed [1, 14]
60: Plant response rating, Morningglory [5, 14] | Plant response rating, Crabgrass, Large [6, 12] | Plant response rating, Crabgrass, Large [6, 14]
30: Morningglory plant response rating [5, 17] | Crabgrass, Large plant response rating [6, 17] | Plant response rating, Barnyardgrass [7, 12]
70: Pigweed plant response rating [1, 17] | Plant response rating, Velvetleaf [4, 14]
0: Corn plant response rating (corn (Zea mays); [17]) | Plant response rating, Corn (corn (Zea mays); [12]) | Plant response rating, Corn (corn (Zea mays); [13]) | Plant response rating, Corn (corn (Zea mays); [14]) | Plant response rating, Pigweed [1, 13] | Plant response rating, Foxtail, Giant [2, 13] | Wheat plant response rating [3, 17] | Plant response rating, Wheat [3, 12] | Plant response rating, Wheat [3, 13] | Plant response rating, Wheat [3, 14] | Plant response rating, Morningglory [5, 13] | Plant response rating, Crabgrass, Large [6, 13] | Plant response rating, Barnyardgrass [7, 13] | Plant response rating, Flood, Rice (rice (Oryza sativa)) | Plant response rating, Rice (rice (Oryza sativa); [19]) | Plant response rating, Flood, Barnyardgrass [10] | Plant response rating, Barnyardgrass [10, 19]
100: Velvetleaf plant response rating [4, 17]

O=C(C1=C(O)C2CCC(C2)C1=O)c1cnc(-c2ccccc2)n(C2CCCCC2)c1=O (stereo not drawn) [Compound 248]
50: Plant response rating, Foxtail, Giant [2, 17] | Plant response rating, Crabgrass, Large [6, 11] | Sedge, Umbrella plant response rating ([9]; 31 g ai/ha)
30: Corn plant response rating (corn (Zea mays); [20]) | Plant response rating, Barnyardgrass [7, 22]
20: Plant response rating, Corn (corn (Zea mays); [22]) | Plant response rating, Foxtail, Giant [2, 22] | Plant response rating, Wheat [3, 22] | Plant response rating, Velvetleaf [4, 21]
100: Foxtail, Giant plant response rating [2, 20] | Plant response rating, Velvetleaf [4, 17] | Velvetleaf plant response rating [4, 20] | Plant response rating, Morningglory [5, 17] | Morningglory plant response rating [5, 20] | Barnyardgrass plant response rating [7, 20]
0: Plant response rating, Corn (corn (Zea mays); [11]) | Plant response rating, Corn (corn (Zea mays); [21]) | Plant response rating, Pigweed [1, 21] | Plant response rating, Wheat [3, 17] | Wheat plant response rating [3, 20] | Plant response rating, Wheat [3, 21] | Plant response rating, Morningglory [5, 21] | Plant response rating, Barnyardgrass [7, 21] | Plant response rating, Flood, Rice (rice (Oryza sativa)) | Plant response rating, Rice (rice (Oryza sativa); [15]) | Plant response rating, Rice (rice (Oryza sativa); [16]) | Rice plant response rating (rice (Oryza sativa); 31 g ai/ha) | Plant response rating, Barnyardgrass [10, 15] | Plant response rating, Barnyardgrass [10, 16] | Barnyardgrass plant response rating ([10]; 31 g ai/ha)
60: Plant response rating, Velvetleaf [4, 22]
85: Plant response rating, Flood, Sedge, Umbrella [9]
40: Plant response rating, Pigweed [1, 22] | Plant response rating, Morningglory [5, 22] | Plant response rating, Flood, Barnyardgrass [10]
65: Plant response rating, Sedge, Umbrella [9, 15]
70: Plant response rating, Crabgrass, Large [6, 22]
10: Plant response rating, Foxtail, Giant [2, 21] | Plant response rating, Crabgrass, Large [6, 21]
90: Pigweed plant response rating [1, 20] | Plant response rating, Barnyardgrass [7, 11] | Plant response rating, Flood, Ducksalad [8]
75: Ducksalad plant response rating ([8]; 31 g ai/ha) | Plant response rating, Sedge, Umbrella [9, 16]
80: Plant response rating, Pigweed [1, 17] | Crabgrass, Large plant response rating [6, 20] | Plant response rating, Ducksalad [8, 15] | Plant response rating, Ducksalad [8, 16]

Reference: patent publication US8952024B2, “Herbicidal pyrimidone derivatives” (E I du Pont de Nemours and Company, priority 2009, dated 2015)
